Data taken from ChEMBL document CHEMBL5634096, “Design, synthesis and bioevaluation of PI3Kα-selective inhibitors as potential colorectal cancer drugs” (Eur J Med Chem, 2023).
Activity calls are given as the source filed them. No cut-off for these calls is given here.

Experiments:
[1] = target: T1, Phosphatidylinositol 4,5-bisphosphate 3-kinase catalytic subunit delta isoform (Homo sapiens, UniProt O00329); assay: Inhibition of PI3Kdelta (unknown origin) by ADP-Glo luminescent kinase assay
T1 sequence (O00329 whole entry): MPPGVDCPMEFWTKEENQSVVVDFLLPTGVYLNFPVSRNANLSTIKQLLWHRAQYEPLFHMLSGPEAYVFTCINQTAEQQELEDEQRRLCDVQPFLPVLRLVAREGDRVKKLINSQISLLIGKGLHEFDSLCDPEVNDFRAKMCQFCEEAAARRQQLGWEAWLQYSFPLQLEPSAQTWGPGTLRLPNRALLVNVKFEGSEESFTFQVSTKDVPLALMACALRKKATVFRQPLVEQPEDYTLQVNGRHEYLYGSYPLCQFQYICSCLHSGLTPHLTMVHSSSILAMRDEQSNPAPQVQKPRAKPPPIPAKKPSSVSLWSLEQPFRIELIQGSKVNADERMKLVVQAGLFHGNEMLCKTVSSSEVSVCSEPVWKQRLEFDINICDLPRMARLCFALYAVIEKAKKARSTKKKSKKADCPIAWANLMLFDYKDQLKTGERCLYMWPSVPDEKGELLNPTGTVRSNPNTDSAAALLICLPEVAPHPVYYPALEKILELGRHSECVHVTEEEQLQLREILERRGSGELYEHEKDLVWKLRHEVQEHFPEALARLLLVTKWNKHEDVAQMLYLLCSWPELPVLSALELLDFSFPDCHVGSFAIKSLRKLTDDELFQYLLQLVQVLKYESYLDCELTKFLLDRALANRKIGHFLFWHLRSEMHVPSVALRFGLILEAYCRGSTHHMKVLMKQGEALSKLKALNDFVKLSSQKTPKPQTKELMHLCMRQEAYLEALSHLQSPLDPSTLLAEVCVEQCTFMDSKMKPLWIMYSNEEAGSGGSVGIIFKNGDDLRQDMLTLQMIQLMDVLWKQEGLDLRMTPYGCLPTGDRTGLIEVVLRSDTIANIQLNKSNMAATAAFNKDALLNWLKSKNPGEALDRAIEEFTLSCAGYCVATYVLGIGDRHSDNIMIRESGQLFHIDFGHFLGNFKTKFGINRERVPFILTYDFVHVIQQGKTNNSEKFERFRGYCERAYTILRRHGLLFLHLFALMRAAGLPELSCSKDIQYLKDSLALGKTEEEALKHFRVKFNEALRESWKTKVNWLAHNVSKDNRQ

[2] = Cytotoxicity against human MCF-10A cells assessed as reduction in cell viability incubated for 24 to 48 hrs by CCK-8 assay; assay type: toxicity, cell-based
[3] = Cytotoxicity against human NCM460 cells assessed as reduction in cell viability incubated for 24 to 48 hrs by CCK-8 assay; assay type: toxicity, cell-based
[4] = Metabolic stability in Sprague-Dawley rat liver microsomes assessed as half life at 5 ug/ml incubated for 1 hr in presence of NADPH by LC-MS/MS analysis; assay type: ADME, Microsome; settings: dose 5 µg/ml
[5] = Metabolic stability in Sprague-Dawley rat liver microsomes assessed as intrinsic clearance at 5 ug/ml incubated for 1 hr in presence of NADPH by LC-MS/MS analysis; assay type: ADME, Microsome; settings: dose 5 µg/ml
[6] = target: Cytochrome P450 3A4 (Homo sapiens, UniProt P08684); assay: Inhibition of CYP3A4 in human liver microsomes using midazolam as substrate pre-incubated for 30 mins followed by substrate addition and measured after 15 mins in presence of NADPH by LC/MS analysis; assay type: ADME, Microsome
Sequence of Cytochrome P450 3A4 (P08684 whole entry): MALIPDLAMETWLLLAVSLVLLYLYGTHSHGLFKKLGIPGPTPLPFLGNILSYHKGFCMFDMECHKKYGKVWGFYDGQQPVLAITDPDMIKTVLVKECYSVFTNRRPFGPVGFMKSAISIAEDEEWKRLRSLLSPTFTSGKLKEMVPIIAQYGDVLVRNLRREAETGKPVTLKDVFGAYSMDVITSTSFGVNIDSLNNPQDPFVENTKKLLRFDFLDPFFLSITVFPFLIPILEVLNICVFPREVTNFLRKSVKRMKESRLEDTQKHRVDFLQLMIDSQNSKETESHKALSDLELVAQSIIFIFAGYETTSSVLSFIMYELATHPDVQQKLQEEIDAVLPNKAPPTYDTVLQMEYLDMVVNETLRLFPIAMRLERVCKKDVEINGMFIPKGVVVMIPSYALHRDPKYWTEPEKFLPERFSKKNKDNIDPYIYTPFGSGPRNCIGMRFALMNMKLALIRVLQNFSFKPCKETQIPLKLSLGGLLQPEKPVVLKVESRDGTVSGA

[7] = MRT (0 to infinity) in Sprague-Dawley rat at 5 mg/kg, iv measured upto 24 hrs by LC-MS analysis; assay type: ADME, organism-based; settings: in vivo
[8] = Cmax in Sprague-Dawley rat at 5 mg/kg, iv measured upto 24 hrs by LC-MS analysis; assay type: ADME, organism-based; settings: in vivo
[9] = target: Receptor-type tyrosine-protein kinase FLT3 (Homo sapiens) (UniProt P36888); assay: Inhibition of human FLT3 at 1 uM
[10] = system: Receptor-type tyrosine-protein kinase FLT3 (Homo sapiens), P36888 [D835Y]; assay: Inhibition of human FLT3 D835Y mutant at 1 uM
[11] = system: MKN-45; assay: Antiproliferative activity against human MKN-45 cells assessed as reduction in cell viability at 10 uM incubated for 24 to 48 hrs by CCK-8 assay; assay type: functional, cell-based; settings: time lower […], time upper 48.0 hrs
[12] = system: K562; assay: Antiproliferative activity against human K562 cells assessed as reduction in cell viability at 10 uM incubated for 24 to 48 hrs by CCK-8 assay; assay type: functional, cell-based; settings: time lower […], time upper 48.0 hrs
[13] = system: 5637; assay: Antiproliferative activity against human 5637 cells assessed as reduction in cell viability at 10 uM incubated for 24 to 48 hrs by CCK-8 assay; assay type: functional, cell-based; settings: time lower […], time upper 48.0 hrs
[14] = system: L02; assay: Cytotoxicity activity against human L02 cells assessed as reduction in cell viability at 10 uM incubated for 24 to 48 hrs by CCK-8 assay; assay type: toxicity, cell-based; settings: l02, 10 µM, time 24-48 hrs
[15] = system: HepG2; assay: Antiproliferative activity against human HepG2 cells assessed as reduction in cell viability at 10 uM incubated for 24 to 48 hrs by CCK-8 assay; assay type: functional, cell-based; settings: time lower […], time upper 48.0 hrs
[16] = system: CAL-62; assay: Antiproliferative activity against human CAL-62 cells assessed as reduction in cell viability at 10 uM incubated for 24 to 48 hrs by CCK-8 assay; assay type: functional, cell-based; settings: time lower […], time upper 48.0 hrs
[17] = system: PaTu 8988t; assay: Antiproliferative activity against human PaTu 8988t cells assessed as reduction in cell viability at 10 uM incubated for 24 to 48 hrs by CCK-8 assay; assay type: functional, cell-based; settings: time lower […], time upper 48.0 hrs
[18] = system: HEK-293T; assay: Cytotoxicity against human HEK293T cells assessed as reduction in cell viability at 10 uM incubated for 24 to 48 hrs by CCK-8 assay; assay type: toxicity, cell-based; settings: time 24-48 hrs
[19] = system: HCT-116; assay: Antiproliferative activity against human HCT-116 cells assessed as reduction in cell viability incubated for 48 hrs by CCK-8 assay; assay type: functional, cell-based; settings: dose 20-80 µM
[20] = system: HCT-116; assay: Inhibition of cell migration human HCT-116 cells incubated for 48 hrs by crystal violet staining based transwell assay; assay type: functional; settings: dose 3-12 µM
[21] = system: HCT-116; assay: Induction of cell cycle arrest in human HCT-116 cells assessed as increase in accumulation of cells at G1/G0 phase at 3 to 12 uM incubated for 48 hrs by PI staining based flow cytometry analysis (reference value: 36.6 %); assay type: functional; settings: dose 3-12 µM
[22] = system: HCT-116; assay: Induction of cell cycle arrest in human HCT-116 cells assessed as decrease in accumulation of cells at S phase at 3 to 12 uM incubated for 48 hrs by PI staining based flow cytometry analysis (reference value: 46.9 %); assay type: functional; parameters: scale not given: the % may be the effect or the level left; settings: dose 3-12 µM
[23] = system: HCT-116; assay: Antiproliferative activity against human HCT-116 cells assessed as inhibition of mTOR phosphorylation incubated for 48 hrs by Western blotting analysis; assay type: functional, cell-based; settings: dose 3-12 µM
[24] = system: HCT-116; assay: Antiproliferative activity against human HCT-116 cells assessed as inhibition of ERK1/2 phosphorylation incubated for 48 hrs by Western blotting analysis; assay type: functional, cell-based; settings: dose 3-12 µM
[25] = system: HCT-116; assay: Induction of cell cycle arrest at G1/G0 phase in human HCT-116 cells assessed as decrease in cyclinE1 expression incubated for 48 hrs by Western blotting analysis; assay type: functional, cell-based; settings: dose 3-12 µM
[26] = Metabolic stability in Sprague-Dawley rat plasma assessed as compound remaining measured upto 3 hrs by LC-MS/MS analysis; assay type: ADME, cell-free

IC50 [1]: 0.111 µM
half-life at 5 ug/ml [4]: 3.61 h
CLH [5]: 6 µL/min/mg
IC50 [6]: > 10 µM
MRT inf [7]: 1.8 h
Cmax [8]: 6000 ng/mL
inhibition [9]: Active
inhibition [10]: Active
Stability [26]: Stable
Compound: Nc1nc2cc(-c3ccc4ncc(N5C[C@@H]6OCCO[C@@H]6C5)nc4c3)ccc2o1
IC50 [2]: 54 µM
IC50 [3]: 49.7 µM
Activity [11]: Active
Activity [12]: Active
Activity [13]: Active
Activity [14]: Toxic
Activity [15]: Active
Activity [16]: Active
Activity [17]: Active
Activity [18]: Toxic
Activity [19]: Dose-Dependent Effect
inhibition [20]: Dose-Dependent Effect
Activity [21]: 43.2%
Activity [22]: 24.8%
Activity [23]: Dose-Dependent Effect
Activity [24]: Dose-Dependent Effect
Activity [25]: Dose-Dependent Effect
